In US8937062B2, “Compositions and methods for treating, reducing, ameliorating, or preventing infections caused by antibacterial drug-resistant bacteria” (Bausch & Lomb Incorporated, priority 2007, dated 2015):
Converted amounts (≈) assume the structure as drawn.

Experiments:
[1] = test system: S. aureus Clinical Isolates; assay: In vitro activity against clinical isolates, sixth test, Table 7; type: cell-based; settings: 49 isolates
[2] = test system: penicillin-resistant S. aureus; assay: MIC90, Japanese Society of Chemotherapy guidelines (1993), Table 3; type: cell-based
Description: (§1) In a second test, compounds having Formulae IV and V, their racemic mixture, and OFLX were tested in vitro against S. aureus strains that are resistant to methicillin or penicillin. The test was conducted according to the guidelines of the Japanese Society of Chemotherapy (1993).

[3] = test system: methicillin-resistant S. aureus; assay: as above; type: cell-based
Description: as §1

[4] = test system: GM-resistant S. aureus; assay: MIC90, agar plate dilution method (NCCLS), Table 2; type: cell-based; settings: 10 isolates
Description: (§2) The MIC90 values for this test were determined by the agar plate dilution method according to the National Committee for Clinical Laboratory Standards (“NCCLS”).

[5] = test system: GM-resistant P. aeruginosa; assay: MIC90, agar plate dilution method (NCCLS), Table 2; type: cell-based; settings: 10 isolates
Description: as §2

[6] = test system: PCG-resistant S. pneumoniae; assay: MIC90, agar plate dilution method (NCCLS), Table 2; type: cell-based; settings: 10 isolates
Description: as §2

[7] = test system: APC-resistant Haemophilus influenza.; assay: MIC90, agar plate dilution method (NCCLS), Table 2; type: cell-based; settings: APC-resistant Haemophilus influenza., 10 isolates
Description: as §2

[8] = test system: OFLX-resistant S. aureus; assay: MIC90, agar plate dilution method (NCCLS), Table 2; type: cell-based; settings: 10 isolates
Description: as §2

[9] = test system: OFLX-resistant Enterobacteriaceae; assay: MIC90, agar plate dilution method (NCCLS), Table 2; type: cell-based; settings: OFLX-resistant Enterobacteriaceae, 10 isolates
Description: as §2

[10] = test system: S. pneumoniae Clinical Isolates; assay: In vitro activity against clinical isolates, sixth test, Table 7; type: cell-based; settings: 78 isolates
[11] = test system: S. pneumoniae, levofloxacin-resistant; assay: MIC90, broth microdilution (CLSI M7-A7), Table 4; type: cell-based; settings: 25 isolates
Description: (§3) The MIC90 values were determined according to the broth microdilution method outlined in the Clinical and Laboratory Standards Institute Approved Standard M7-A7 (2006).

[12] = test system: S. pneumoniae, penicillin-resistant; assay: MIC90, broth microdilution (CLSI M7-A7), Table 4; type: cell-based; settings: 26 isolates
Description: as §3

[13] = test system: H. influenzae, β-lactamase positive, ampicillin-resistant; assay: MIC90, broth microdilution (CLSI M7-A7), Table 4; type: cell-based; settings: 25 isolates
Description: as §3

[14] = test system: S. aureus, methicillin- and ciprofloxacin-resistant; assay: MIC90, broth microdilution (CLSI M7-A7), Table 4; type: cell-based; settings: 24 isolates
Description: as §3

[15] = test system: H. influenzae, β-lactamase positive; assay: MIC90, broth microdilution (CLSI M7-A7), Table 4; type: cell-based; settings: 53 isolates
Description: as §3

[16] = test system: S. aureus, vancomycin-resistant; assay: MIC90, broth microdilution (CLSI M7-A7), Table 4; type: cell-based; settings: 3 isolates
Description: as §3

[17] = test system: S. aureus, vancomycin-intermediately resistant; assay: MIC90, broth microdilution (CLSI M7-A7), Table 4; type: cell-based; settings: 23 isolates
Description: as §3

[18] = test system: S. epidermidis, methicillin-resistant; assay: MIC90, broth microdilution (CLSI M7-A7), Table 4; type: cell-based; settings: 64 isolates
Description: as §3

[19] = test system: S. pneumoniae, penicillin-intermediately resistant; assay: MIC90, broth microdilution (CLSI M7-A7), Table 4; type: cell-based; settings: 26 isolates
Description: as §3

[20] = test system: S. aureus, methicillin-resistant and ciprofloxacin-sensitive; assay: MIC90, broth microdilution (CLSI M7-A7), Table 4; type: cell-based; settings: 25 isolates
Description: as §3

[21] = test system: E. cloacae, extended-spectrum β-lactamase positive; assay: MIC90, broth microdilution (CLSI M7-A7), Table 4; type: cell-based; settings: 15 isolates
Description: as §3

[22] = test system: Gentamicin-resistant Pseudomonas aeruginosa; assay: In vitro anti-bacterial activity, resistant clinical isolates, fifth test, Table 6; type: cell-based
Description: (§4) As disclosed above, most of these bacteria strains are also relevant to infections of the ear and upper respiratory tract.

[23] = test system: Gentamicin-resistant Staphylococcus aureus; assay: as above; type: cell-based
Description: as §4

[24] = test system: Ofloxacin-resistant Staphylococcus aureus; assay: as above; type: cell-based
Description: as §4

[25] = test system: Penicillin-resistant Streptococcus pneumoniae; assay: as above; type: cell-based
Description: as §4

[26] = test system: Ofloxacin-resistant Enterobacteriaceae; assay: organism not typed; type: cell-based; settings: Ofloxacin-resistant Enterobacteriaceae, clinical isolates, fifth test
Description: as §4

[27] = test system: Methicillin-Resistant S. aureus Isolates; assay: In vitro anti-bacterial activity, fourth test, Table 5; type: cell-based, Staphylococcus aureus
Description: In a fourth test, the anti-bacterial activity of the compound having Formula IV was tested against some methicillin-resistant S. aureus bacteria strains and compared to the anti-bacterial activity of three commercially available antibiotics: nadifloxacin (“NDFX”), ofloxacin (“OFLX”), and sparfloxacin (“SPFX”).

SMILES: N[C@@H]1CCCCN(c2c(F)cc3c(=O)c(C(=O)O)cn(C4CC4)c3c2Cl)C1 [Compound IV]
- MIC90 Range [1]: 0.015 to 2 µg/mL
- MIC90 Value [1]: 0.25 µg/mL (≈ 0.635 µM)
- MIC90 ([2]; S. aureus (ATCC 11632)): 0.025 µg/mL (≈ 0.0635 µM)
- MIC90 ([2]; S. aureus (ATCC 13301)): 0.012 µg/mL (≈ 0.0305 µM)
- MIC90 ([3]; S. aureus (ATCC 33591)): 0.025 µg/mL (≈ 0.0635 µM)
- MIC90 ([3]; S. aureus (ATCC 33592)): 0.012 µg/mL (≈ 0.0305 µM)
- MIC90 ([3]; S. aureus (ATCC 33593)): 0.025 µg/mL (≈ 0.0635 µM)
- MIC90 ([3]; S. aureus (No. 395)): 0.025 µg/mL (≈ 0.0635 µM)
- MIC90 ([3]; S. aureus (No. 415)): 0.012 µg/mL (≈ 0.0305 µM)
- MIC90 ([3]; S. aureus (No. 419)): 0.025 µg/mL (≈ 0.0635 µM)
- MIC90 ([3]; S. aureus (No. 420)): 0.012 µg/mL (≈ 0.0305 µM)
- MIC90 ([3]; S. aureus (No. 421)): 0.025 µg/mL (≈ 0.0635 µM)
- MIC90 Geometric Mean [4]: 0.65 µg/mL (≈ 1.65 µM)
- MIC90 Range [4]: ≦0.006-8 μg/ml
- MIC90 Value [4]: 4 µg/mL (≈ 10.2 µM)
- MIC90 Geometric Mean [5]: 5.28 µg/mL (≈ 13.4 µM)
- MIC90 Range [5]: 0.5 to 32 µg/mL
- MIC90 Value [5]: 32 µg/mL (≈ 81.3 µM)
- MIC90 Geometric Mean [6]: 0.10 µg/mL (≈ 0.254 µM)
- MIC90 Range [6]: ≦0.06-0.13 μg/ml
- MIC90 Value [6]: 0.13 µg/mL (≈ 0.33 µM)
- MIC90 Geometric Mean [7]: ≦0.06 μg/ml
- MIC90 Range [7]: ≦0.06 μg/ml
- MIC90 Value [7]: ≦0.06 μg/ml
- MIC90 Geometric Mean [8]: 2.14 µg/mL (≈ 5.43 µM)
- MIC90 Range [8]: 0.5 to 8 µg/mL
- MIC90 Value [8]: 8 µg/mL (≈ 20.3 µM)
- MIC90 Geometric Mean [9]: 11.3 µg/mL (≈ 28.7 µM)
- MIC90 Range [9]: 4 to 32 µg/mL
- MIC90 Value [9]: 16 µg/mL (≈ 40.6 µM)
- MIC90 Range [10]: 0.03 to 0.12 µg/mL
- MIC90 Value [10]: 0.12 µg/mL (≈ 0.305 µM)
- MIC90 Geometric Mean [11]: 1.028 µg/mL (≈ 2.61 µM)
- MIC90 Range [11]: 0.5 to 8 µg/mL
- MIC90 Value [11]: 2 µg/mL (≈ 5.08 µM)
- MIC90 Geometric Mean [12]: 0.108 µg/mL (≈ 0.274 µM)
- MIC90 Range [12]: 0.06 to 0.12 µg/mL
- MIC90 Value [12]: 0.12 µg/mL (≈ 0.305 µM)
- MIC90 Geometric Mean [13]: 0.044 µg/mL (≈ 0.112 µM)
- MIC90 Range [13]: 0.015 to 0.25 µg/mL
- MIC90 Value [13]: 0.12 µg/mL (≈ 0.305 µM)
- MIC90 Geometric Mean [14]: 1.542 µg/mL (≈ 3.92 µM)
- MIC90 Range [14]: 0.5 to 8 µg/mL
- MIC90 Value [14]: 8 µg/mL (≈ 20.3 µM)
- MIC90 Geometric Mean [15]: 0.027 µg/mL (≈ 0.0686 µM)
- MIC90 Range [15]: 0.015 to 0.06 µg/mL
- MIC90 Value [15]: 0.03 µg/mL (≈ 0.0762 µM)
- MIC90 Geometric Mean [16]: 1.587 µg/mL (≈ 4.03 µM)
- MIC90 Range [16]: 1 to 4 µg/mL
- MIC90 Geometric Mean [17]: 0.652 µg/mL (≈ 1.66 µM)
- MIC90 Range [17]: 0.03 to 2 µg/mL
- MIC90 Value [17]: 2 µg/mL (≈ 5.08 µM)
- MIC90 Geometric Mean [18]: 0.397 µg/mL (≈ 1.01 µM)
- MIC90 Value [18]: 8 µg/mL (≈ 20.3 µM)
- MIC90 Geometric Mean [19]: 0.120 µg/mL (≈ 0.305 µM)
- MIC90 Range [19]: 0.06 to 2 µg/mL
- MIC90 Value [19]: 0.12 µg/mL (≈ 0.305 µM)
- MIC90 Geometric Mean [20]: 0.033 µg/mL (≈ 0.0838 µM)
- MIC90 Range [20]: 0.015 to 1 µg/mL
- MIC90 Value [20]: 0.06 µg/mL (≈ 0.152 µM)
- MIC90 Geometric Mean [21]: 4.595 µg/mL (≈ 11.7 µM)
- MIC90 Value [21]: >8 µg/mL
- MIC90 [22]: 32 µg/mL (≈ 81.3 µM)
- MIC90 [23]: 4 µg/mL (≈ 10.2 µM)
- MIC90 [24]: 8 µg/mL (≈ 20.3 µM)
- MIC90 [25]: 0.13 µg/mL (≈ 0.33 µM)
- MIC90 [26]: 16 µg/mL (≈ 40.6 µM)
- MIC90 ([27]; Staphylococcus aureus (ATCC 33591)): 0.012 µg/mL (≈ 0.0305 µM)
- MIC90 ([27]; Staphylococcus aureus (ATCC 33592)): 0.05 µg/mL (≈ 0.127 µM)
- MIC90 ([27]; Staphylococcus aureus (ATCC 33593)): 0.012 µg/mL (≈ 0.0305 µM)
- MIC90 ([27]; Staphylococcus aureus (No. 395)): 0.006 µg/mL (≈ 0.0152 µM)
- MIC90 ([27]; Staphylococcus aureus (No. 415)): 0.05 µg/mL (≈ 0.127 µM)
- MIC90 ([27]; Staphylococcus aureus (No. 419)): 0.1 µg/mL (≈ 0.254 µM)
- MIC90 ([27]; Staphylococcus aureus (No. 420)): 0.1 µg/mL (≈ 0.254 µM)
- MIC90 ([27]; Staphylococcus aureus (No. 421)): 0.2 µg/mL (≈ 0.508 µM)
